This is an account of results in patent US20260042764A1, “COMPOSITIONS AND METHODS FOR INHIBITION OF KRAS” (TheRas, Inc., priority 2022, published 2026).

The test system of assay [1] is GP2d cells (KRAS G12D). The assay is described as follows: Cell-based pERK HTRF assay in GP2d cell (Biological Example 2). The conditions noted are these: GP2d (KRAS G12D) cells, pERK HTRF. The gist of the method:
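HTRF read-out of pERK (excitation 320 nm, emission 615 nm) after lysates sat 4–24 h at room temperature with Eu cryptate and d2 antibodies.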
For orientation: In TR-FRET formats the signal depends on donor and acceptor labels being close together.

Assay [2] has as its target T1, Avi-KRAS G12R (1-169) GppNHp/RAF1 RBD-3xFLAG (52-151) (Homo sapiens, UniProt P01116, G12R).
T1 construct: Avi-KRAS G12R (1-169)
The assay is described as follows: Raf1-KRAS G12R-GppNHP disruption HTRF assay (Biological Example 1). Type of assay: binding. The gist of the method: (§1)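 Measured with a KRAS/RAF1 HTRF assay at pH 7.5 in 10% DMSO, with two 1 h room-temperature incubations with shaking.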

Assay [3] concerns the target T2, Avi-KRAS G12V (1-169) GppNHp/RAF1 RBD-3xFLAG (52-151) (Homo sapiens, UniProt P01116, G12V).
T2 construct: Avi-KRAS G12V (1-169)
The assay is described as follows: Raf1-KRAS G12V-GppNHP disruption HTRF assay (Biological Example 1). In kind it is binding. The gist of the method: as §1

Assay [4] concerns SW620 cells (KRAS G12V). The assay is described as follows: Cell-based pERK HTRF assay in SW620 cell (Biological Example 4). The conditions noted are these: pERK HTRF. The essentials: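 SW620 cells were treated for 4 h with compound in a 9-point half-log series from 1 μM top (0.25% DMSO), then lysed. Phospho-ERK was detected by HTRF with d2 and Eu cryptate antibodies after 4–24 h at room temperature, read at 615 nm emission.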

In assay [5] the target is T3, Avi-KRAS WT (1-169) GppNHp/RAF1 RBD-3xFLAG (52-151) (Homo sapiens, UniProt P01116).
T3 construct: Avi-KRAS WT (1-169)
The assay is described as follows: Raf1-KRAS WT-GppNHP disruption HTRF assay (Biological Example 1). In kind it is binding. The essentials:
as §1

Assay [6] addresses T4, Avi-KRAS G12D (1-169) GppNHp/RAF1 RBD-3xFLAG (52-151) (Homo sapiens, UniProt P01116, G12D).
T4 construct: Avi-KRAS G12D (1-169)
The assay is described as follows: Raf1-KRAS G12D-GppNHP disruption HTRF assay (Biological Example 1). Type of assay: binding. The gist of the method: as §1

Where [7] appears, read: Homo sapiens, SW-620, SW620 (KRAS G12V) cells.
[8] abbreviates: KRAS G12R, GppNHp-loaded, class symbols.
The mark [9] stands for this setting: KRAS G12V, GppNHp-loaded, class symbols.
Where [10] appears, read: Homo sapiens, SW-620, SW620 (KRAS G12V) cells, class symbols.
The mark [11] stands for this setting: KRAS WT, GppNHp-loaded, class symbols.
[12] abbreviates: KRAS G12D, GppNHp-loaded, class symbols.

T1 sequence (P01116 1-169 isoform P01116-2 G12R): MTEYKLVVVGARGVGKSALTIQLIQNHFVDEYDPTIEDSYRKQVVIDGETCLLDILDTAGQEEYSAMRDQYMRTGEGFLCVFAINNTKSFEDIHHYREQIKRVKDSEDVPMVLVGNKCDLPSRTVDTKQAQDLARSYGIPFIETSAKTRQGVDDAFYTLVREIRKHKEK
T2 sequence (P01116 1-169 isoform P01116-2 G12V): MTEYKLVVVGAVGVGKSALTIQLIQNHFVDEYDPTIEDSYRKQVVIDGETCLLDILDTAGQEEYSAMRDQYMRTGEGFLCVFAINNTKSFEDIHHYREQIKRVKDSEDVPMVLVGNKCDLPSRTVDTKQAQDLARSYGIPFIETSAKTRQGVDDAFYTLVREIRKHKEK
T4 sequence (P01116 1-169 isoform P01116-2 G12D): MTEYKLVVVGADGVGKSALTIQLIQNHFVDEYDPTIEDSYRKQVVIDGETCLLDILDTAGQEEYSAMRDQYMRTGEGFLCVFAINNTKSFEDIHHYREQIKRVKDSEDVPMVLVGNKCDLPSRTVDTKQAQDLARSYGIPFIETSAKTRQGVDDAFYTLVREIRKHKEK
T3 sequence (P01116 1-169 isoform P01116-2): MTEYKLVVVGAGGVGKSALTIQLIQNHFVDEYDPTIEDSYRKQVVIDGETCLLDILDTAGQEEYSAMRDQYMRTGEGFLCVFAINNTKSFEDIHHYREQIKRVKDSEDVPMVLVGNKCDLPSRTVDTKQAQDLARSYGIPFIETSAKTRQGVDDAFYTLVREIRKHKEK

With `N#Cc1nnn2c1CN(c1nc(OC[C@@]34CCCN3C[C@H](F)C4)nc3c(F)c(-c4ccc(F)c5sc(N)c(C#N)c45)c(C(F)(F)F)cc13)CC2` [Compound 486], the IC50 (as a rule, the concentration at which inhibition is half-maximal) in assay [1] (GP2d) was less than 100 nM; in assay [2] (KRAS G12R-GppNHp/RAF1 RBD HTRF), 100 to 1000 nM; in assay [3] (KRAS G12V-GppNHp/RAF1 RBD HTRF), 100 to 1000 nM; in assay [4] (setting [7]), less than 100 nM; in assay [5] (KRAS WT-GppNHp/RAF1 RBD HTRF), 100 to 1000 nM; in assay [6] (KRAS G12D-GppNHp/RAF1 RBD HTRF), 100 to 1000 nM.
For `N#Cc1c(N)sc2c(F)ccc(-c3c(C(F)(F)F)cc4c(N5CCCN6C(=O)CCC6C5)nc(OCC56CCCN5CC(F)C6)nc4c3F)c12` (stereo not drawn) [Compound 490], the IC50 lay within 100 to 1000 nM in assay [1]; 1000 to 10000 nM in assay [2] (KRAS G12R-GppNHp/RAF1 RBD HTRF); 1000 to 10000 nM in assay [3] (KRAS G12V-GppNHp/RAF1 RBD HTRF); 100 to 1000 nM in assay [4] (SW620 (KRAS G12V) cells); 1000 to 10000 nM in assay [5] (KRAS WT-GppNHp/RAF1 RBD HTRF); 100 to 1000 nM in assay [6] (KRAS G12D-GppNHp/RAF1 RBD HTRF).
Regarding `CN(C)C(=O)c1nc2n(n1)CCN(c1nc(OC[C@@]34CCCN3C[C@H](F)C4)nc3c(F)c(-c4ccc(F)c5sc(N)c(C#N)c45)c(C(F)(F)F)cc13)C2` [Compound 356], the concentration for half-maximal inhibition (IC50) in assay [1] (GP2d) was less than 100 nM; in assay [2] (KRAS G12R-GppNHp/RAF1 RBD HTRF) it was 100 to 1000 nM; in assay [3] (KRAS G12V-GppNHp/RAF1 RBD HTRF), 100 to 1000 nM; in assay [4] (setting [7]) it was less than 100 nM; in assay [5] (KRAS WT-GppNHp/RAF1 RBD HTRF) it was 100 to 1000 nM; in assay [6] (KRAS G12D-GppNHp/RAF1 RBD HTRF), less than 100 nM.
With `CCN(c1nc(OC[C@@]23CCCN2C[C@H](F)C3)nc2c(F)c(-c3ccc(F)c4sc(N)c(C#N)c34)c(C(F)(F)F)cc12)[C@H]1CCN(C(=O)N2CCOCC2)C1` (atropisomer, axis not shown) [Compound 553], the IC50 in assay [1] (GP2d), in assay [2] (KRAS G12R-GppNHp/RAF1 RBD HTRF), in assay [3] (KRAS G12V-GppNHp/RAF1 RBD HTRF), in assay [4] (setting [7]), in assay [5] (KRAS WT-GppNHp/RAF1 RBD HTRF) and in assay [6] (KRAS G12D-GppNHp/RAF1 RBD HTRF) was less than 100 nM each time.
As to `CCN(c1nc(OC[C@@]23CCCN2C[C@H](F)C3)nc2c(F)c(-c3ccc(F)c4sc(N)c(C#N)c34)c(C(F)(F)F)cc12)[C@H]1C[C@H]2CCN(C)C(=O)N2C1` (atropisomer, axis not shown) [Compound 666], the IC50 in assay [1] (GP2d, class symbols) was less than 100 nM; in assay [2] (setting [8]), less than 100 nM; in assay [3] (setting [9]), less than 100 nM; in assay [4] (setting [10]), less than 100 nM; in assay [5] (setting [11]), less than 100 nM; in assay [6] (setting [12]), less than 100 nM.
`CCN(C)C(=O)N1CC[C@H](N(CC)c2nc(OC[C@@]34CCCN3C[C@H](F)C4)nc3c(F)c(-c4ccc(F)c5sc(N)c(C#N)c45)c(C(F)(F)F)cc23)C1` (atropisomer, axis not shown) [Compound 582]: the half-maximal inhibitory concentration (IC50) is less than 100 nM in assay [1] (GP2d, class symbols); less than 100 nM in assay [2] (setting [8]); less than 100 nM in assay [3] (setting [9]); less than 100 nM in assay [4] (setting [10]); less than 100 nM in assay [5] (setting [11]); less than 100 nM in assay [6] (setting [12]).
With `C[C@@H]1CN(c2nc(OC[C@@]34CCCN3C[C@H](F)C4)nc3c(F)c(-c4ccc(F)c5sc(N)c(C#N)c45)c(C(F)(F)F)cc23)Cc2cc(C(=O)N(C)C)nn21` [Compound 423], the IC50 in assay [1] (GP2d) was less than 100 nM; in assay [2] (KRAS G12R-GppNHp/RAF1 RBD HTRF), 100 to 1000 nM; in assay [3] (KRAS G12V-GppNHp/RAF1 RBD HTRF) it was 100 to 1000 nM; in assay [4] (setting [7]), less than 100 nM; in assay [5] (KRAS WT-GppNHp/RAF1 RBD HTRF) it was 100 to 1000 nM; in assay [6] (KRAS G12D-GppNHp/RAF1 RBD HTRF), 100 to 1000 nM.
Turning to `CCN(c1nc(OC[C@@]23CCCN2C[C@H](F)C3)nc2c(F)c(-c3ccc(F)c4sc(N)c(C#N)c34)c(Cl)cc12)[C@@H]1CCN(C(C)=O)[C@H]1C` [Compound 416], the IC50 in assay [1] (GP2d) is less than 100 nM; in assay [2] (KRAS G12R-GppNHp/RAF1 RBD HTRF) it was 1000 to 10000 nM; in assay [3] (KRAS G12V-GppNHp/RAF1 RBD HTRF), 1000 to 10000 nM; in assay [4] (setting [7]), 100 to 1000 nM; in assay [5] (KRAS WT-GppNHp/RAF1 RBD HTRF), 100 to 1000 nM; in assay [6] (KRAS G12D-GppNHp/RAF1 RBD HTRF), 100 to 1000 nM.
Take `CCN(c1nc(OC[C@@]23CCCN2C[C@H](F)C3)nc2c(F)c(-c3ccc(F)c4sc(N)c(C#N)c34)c(C(F)(F)F)cc12)[C@@H]1C[C@@H](C)N(C(=O)COC)C1` (atropisomer, axis not shown) [Compound 597]: the IC50 in assay [1] (GP2d, class symbols) is less than 100 nM; in assay [2] (setting [8]) it was 100 to 1000 nM; in assay [3] (setting [9]), 100 to 1000 nM; in assay [4] (setting [10]), less than 100 nM; in assay [5] (setting [11]), less than 100 nM; in assay [6] (setting [12]), 100 to 1000 nM.
